From ChEMBL document CHEMBL1143244, “Conformational studies of 3-amino-1-alkyl-cyclopentane carboxamide CCR2 antagonists leading to new spirocyclic antagonists” (Bioorg Med Chem Lett, 2008)

What was measured:
[1] = molecular target: T1, C-C chemokine receptor type 2 (Homo sapiens, UniProt P41597); experiment: Displacement of [125I]MCP1 from human CCR2 expressed in human monocytes; format: cell-based
Target sequence in this assay (P41597 whole entry): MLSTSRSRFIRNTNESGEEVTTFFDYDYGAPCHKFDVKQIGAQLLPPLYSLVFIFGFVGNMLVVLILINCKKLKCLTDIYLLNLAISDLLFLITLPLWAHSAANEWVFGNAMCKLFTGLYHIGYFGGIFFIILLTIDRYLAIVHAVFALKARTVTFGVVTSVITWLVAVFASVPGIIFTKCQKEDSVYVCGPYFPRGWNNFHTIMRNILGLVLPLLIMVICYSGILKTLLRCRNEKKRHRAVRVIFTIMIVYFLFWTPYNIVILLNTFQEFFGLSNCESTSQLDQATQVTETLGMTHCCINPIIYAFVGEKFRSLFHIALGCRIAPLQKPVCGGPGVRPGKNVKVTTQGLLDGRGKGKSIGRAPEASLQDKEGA

[2] = molecular target: T1, C-C chemokine receptor type 2; experiment: Displacement of [125I]MCP1 from human CCR2 expressed in human monocytes at 1 uM; format: cell-based
Target sequence in this assay (P41597 whole entry, looked up): as the sequence (P41597 whole entry) above

IC50 [1] [nM]	inhibition [2] [%]	SMILES
115	–	C[C@H]1CN([C@@H]2CC[C@@]3(CCO[C@@H]3OCc3cc(F)cc(C(F)(F)F)c3)C2)CC[C@@]12C=Cc1ccccc12
–	18	C[C@H]1CN([C@@H]2CCC3(CCN(Cc4cc(F)cc(C(F)(F)F)c4)C3=O)C2)CC[C@@]12C=Cc1ccccc12 (some centres undefined)
4.6	–	C[C@H]1CN([C@@H]2CC[C@@]3(CCO[C@H]3OCc3cc(F)cc(C(F)(F)F)c3)C2)CC[C@@]12C=Cc1ccccc12
1.4	–	CC(C)[C@]1(C(=O)NCc2cc(F)cc(C(F)(F)F)c2)CC[C@@H](N2CC[C@@]3(C=Cc4ccccc43)[C@@H](C)C2)C1
